Measured values: patent EP0659743A1, “Piperidine derivatives as inhibitors of platelet aggregation and their preparation” (HOECHST AKTIENGESELLSCHAFT, priority 1993, dated 1995)

Columns and labels:
[1] = tested on: Human Platelet; assay: In-vitro Human Platelet Aggregation in PRP (ADP induced); format: cell-based; conditions: PRP (platelet rich plasma), 37°C, read-out: IC₅₀(µM) Inhibitor of ADP induced Platelet aggregation
Protocol: The compounds of the above invention are tested for platelet binding inhibitory activity in the following assays: • 1. In-vitro Human Platelet Aggregation in PRP: Blood is drawn from healthy human volunteers who had no medication for at least two weeks. 8.4 ml of venous blood are collected into 1.4 ml of ACD solution (citric acid 0.8 %, sodium citrate 2.2 %, hirudin 0.6 u/ml) and centrifuged for 10 min. at 120 g. The platelet rich plasma (PRP) is carefully removed and remaining blood is further centrifuged at 1200 g for 15 min. to separate platelet poor plasma (PPP). For aggregation studies the aggregometer is adjusted by using PPP and PRP. ADP is then added tp PRP which is kept at 37°C and stirred constantly at 1000 rpm. The aggregation of platelets causes an increase in transparency of PRP which is recorded. • 2. Preparation of Gel Filtered Platelets (GFP): Platelet rich plasma (PRP) is collected as mentioned in the above procedure. Its pH is adjusted to 6.5 with ACD solution and then centrifuged at 285 g for 20 min.. The resulting pellet is resuspended in Tyrode's buffer (NaCl, 7.01 g/l; KCl, 0194 g/l; NaHCO₃, 1.01 g/l; Glucose, 1.09 g/l; NaH₂PO₄, 0.061 g/l; Hepes, 2.380 g/l; albumin, 3.5 g/l) and the platelet suspension is applied on to a ^RSepharose CL 20 column. Equilibrium and elution is done with Tyrode's buffer. Platelets are recovered in the void volume. Final platelet concentration is adjusted to 4 X 108 platelets/ml. For the aggregation studies, GFP in Tyrodes buffer is mixed with calcium chloride (final concentration […]) and an agonist (ADP or Thrombin) with or without test compound (1 to 300 µM) and incubated at 37°C for 3 min.. After the addition of fibrinogen (final conc. 1 mg/ml) the aggregation is recorded.
Aggregation maximum for PRP or GFP without any inhibitor is taken as 100 % aggregation and is compared with aggregation maximum of RPR or GFP incubated with the test compound.

[2] = tested on: Gel Filtered Platelets (GFP); assay: ADP induced aggregation of Gel Filtered Platelets (GFP); format: cell-based; conditions: Homo sapiens, Platelet, 0.05 h, GFP (gel filtered platelets) in Tyrode's buffer, fibrinogen 1 mg/ml, 37°C for 3 min, read-out: IC₅₀(µM) Inhibitor of ADP induced Platelet aggregation
Protocol: The compounds of the above invention are tested for platelet binding inhibitory activity in the following assays: • 1. In-vitro Human Platelet Aggregation in PRP: Blood is drawn from healthy human volunteers who had no medication for at least two weeks. 8.4 ml of venous blood are collected into 1.4 ml of ACD solution (citric acid 0.8 %, sodium citrate 2.2 %, hirudin 0.6 u/ml) and centrifuged for 10 min. at 120 g. The platelet rich plasma (PRP) is carefully removed and remaining blood is further centrifuged at 1200 g for 15 min. to separate platelet poor plasma (PPP). For aggregation studies the aggregometer is adjusted by using PPP and PRP. ADP is then added tp PRP which is kept at 37°C and stirred constantly at 1000 rpm. The aggregation of platelets causes an increase in transparency of PRP which is recorded. • 2. Preparation of Gel Filtered Platelets (GFP): Platelet rich plasma (PRP) is collected as mentioned in the above procedure. Its pH is adjusted to 6.5 with ACD solution and then centrifuged at 285 g for 20 min.. The resulting pellet is resuspended in Tyrode's buffer (NaCl, 7.01 g/l; KCl, 0194 g/l; NaHCO₃, 1.01 g/l; Glucose, 1.09 g/l; NaH₂PO₄, 0.061 g/l; Hepes, 2.380 g/l; albumin, 3.5 g/l) and the platelet suspension is applied on to a ^RSepharose CL 20 column. […] After the addition of fibrinogen (final conc. 1 mg/ml) the aggregation is recorded. […]

For COC(=O)COc1ccc(C=CC(=O)c2c(OC)cc(OC)c(C3CCN(C)CC3O)c2O)cc1 (centres unmarked) [Compound 2], the IC50 [1] was 5.3 µM and the IC50 [2] was 0.53 µM.
In the case of COC(=O)COc1ccc(C=CC(=O)c2c(OC)cc(OC)c(C3CCN(C)CC3)c2O)cc1 [Compound 6], the IC50 [1] is reported as 17 µM.
In the case of COC(=O)COc1ccc(CCC(=O)c2c(OC)cc(OC)c(C3CCN(C)CC3)c2O)cc1 [Compound 7], the IC50 [1] is reported as 8 µM and the IC50 [2] is reported as 2 µM.
